In PubChem BioAssay AID652229 (The Scripps Research Institute Molecular Screening Center, 2013):
Active and inactive are the calls of the source.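 The calls were made as follows: active = phosphatase PP5 activity blocked by at least 30% at 50 µM; inactive = the rest.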

What follows are compounds tested against Serine/threonine-protein phosphatase 5 (Homo sapiens) (UniProt P53041) (assay: inhibitors of PP5 catalytic domain activity – biochemical, radiolabel, 33P-phosphohistone substrate, powder samples, selectivity assay for PP1 inhibitor project, late-stage follow-up (AID 652229)). Details: purified PP5c, 33P-phosphohistone dephosphorylation, scintillation; at 50 µM; active compounds read high.
Sequence of Serine/threonine-protein phosphatase 5 (Homo sapiens) (P53041 whole entry, looked up, the tested form may be a part): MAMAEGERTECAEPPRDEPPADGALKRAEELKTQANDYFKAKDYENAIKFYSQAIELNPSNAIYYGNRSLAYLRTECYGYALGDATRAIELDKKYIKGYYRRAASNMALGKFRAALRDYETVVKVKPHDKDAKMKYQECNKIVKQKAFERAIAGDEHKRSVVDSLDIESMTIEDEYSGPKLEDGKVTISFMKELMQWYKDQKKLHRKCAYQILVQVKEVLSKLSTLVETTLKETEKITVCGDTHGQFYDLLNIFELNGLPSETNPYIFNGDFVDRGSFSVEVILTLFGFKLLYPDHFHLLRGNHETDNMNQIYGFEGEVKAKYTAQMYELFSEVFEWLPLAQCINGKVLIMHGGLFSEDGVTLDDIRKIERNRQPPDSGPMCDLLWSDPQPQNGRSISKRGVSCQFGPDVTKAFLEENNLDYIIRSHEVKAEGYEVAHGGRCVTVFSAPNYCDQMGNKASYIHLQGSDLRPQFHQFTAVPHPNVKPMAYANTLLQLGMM

inhibition, inactive:
Oc1c(C(c2ccccn2)N2CCN(c3ccccc3F)CC2)cc(Cl)c2cccnc12 (configuration not stated) -0.6%
Oc1c(C(c2ccccn2)N2CCNCC2)cc(Cl)c2cccnc12 (configuration not stated) 6.84%
CC1CCN(C(c2ccccn2)c2cc(Cl)c3cccnc3c2O)CC1 (configuration not stated) 6.08%
CN1CCN(C(c2ccccn2)c2cc(Cl)c3cccnc3c2O)CC1 (configuration not stated) 3.05%
CC(C)(C)OC(=O)N1CCN(C(c2ccccn2)c2cc(Cl)c3cccnc3c2O)CC1 (configuration not stated) 0.25%
CCN1CCN(C(c2ccccn2)c2cc(Cl)c3cccnc3c2O)CC1 (configuration not stated) 3.21%
Oc1c(C(c2ccccn2)N2CCC(Cc3ccccc3)CC2)cc(Cl)c2cccnc12 (configuration not stated) 4.23%
